What was measured:
PHKG1 = molecular target: T1, PHKG1 (Homo sapiens, UniProt Q16816); test: Kinase panel, CaNDY 1 µM; assay type: biochemical; details: CaNDY 1 µM relative to DMSO
T1 construct: purchased Carna Biosciences

HGK = molecular target: T2, HGK (Homo sapiens, UniProt O95819); test: Kinase panel, CaNDY 1 µM; assay type: biochemical; details: CaNDY 1 µM relative to DMSO
T2 construct: purchased Carna Biosciences

IRR = molecular target: T3, IRR (Homo sapiens, UniProt P14616); test: Kinase panel, CaNDY 1 µM; assay type: biochemical; details: CaNDY 1 µM relative to DMSO
T3 construct: purchased Carna Biosciences

JAK1 = molecular target: T4, JAK1 (Homo sapiens, UniProt P23458); test: Kinase panel, CaNDY 1 µM; assay type: biochemical; details: CaNDY 1 µM relative to DMSO
T4 construct: purchased Carna Biosciences

IRAK4 = molecular target: T5, IRAK4 (Homo sapiens, UniProt Q9NWZ3); test: Kinase panel, CaNDY 1 µM; assay type: biochemical; details: CaNDY 1 µM relative to DMSO
T5 construct: purchased Carna Biosciences

CK2α2/β = molecular target: T6, CK2α2/β (Homo sapiens, UniProt P19784); test: Kinase panel, CaNDY 1 µM; assay type: biochemical; details: CaNDY 1 µM relative to DMSO
T6 construct: purchased Carna Biosciences

TRKA = molecular target: T7, TRKA (Homo sapiens, UniProt P04629); test: Kinase panel, CaNDY 1 µM; assay type: biochemical; details: CaNDY 1 µM relative to DMSO
T7 construct: purchased Carna Biosciences

Erk2 = molecular target: T8, Erk2 (Homo sapiens, UniProt P28482); test: Kinase panel, CaNDY 1 µM; assay type: biochemical; details: CaNDY 1 µM relative to DMSO
T8 construct: purchased Carna Biosciences

Erk1 = molecular target: T9, Erk1 (Homo sapiens, UniProt P27361); test: Kinase panel, CaNDY 1 µM; assay type: biochemical; details: CaNDY 1 µM relative to DMSO
T9 construct: purchased Carna Biosciences

p38γ = molecular target: T10, p38γ (Homo sapiens, UniProt P53778); test: Kinase panel, CaNDY 1 µM; assay type: biochemical; details: CaNDY 1 µM relative to DMSO
T10 construct: purchased Carna Biosciences

PDGFRα(T674I) = molecular target: T11, PDGFRα(T674I) (Homo sapiens, UniProt P16234, T674I); test: Kinase panel, CaNDY 1 µM; assay type: biochemical; details: CaNDY 1 µM relative to DMSO
T11 construct: purchased Carna Biosciences

KDR = molecular target: T12, KDR (Homo sapiens, UniProt P35968); test: Kinase panel, CaNDY 1 µM; assay type: biochemical; details: CaNDY 1 µM relative to DMSO
T12 construct: purchased Carna Biosciences

RAF1_Cascade = molecular target: T13, RAF1_Cascade (Homo sapiens, UniProt P04049); test: Kinase panel, CaNDY 1 µM; assay type: biochemical; details: CaNDY 1 µM relative to DMSO
T13 construct: purchased Carna Biosciences

DYRK1A = DYRK1A (Homo sapiens, UniProt Q13627); test: In vitro kinase assay, substrate DYRKtide-F; assay type: biochemical; design: full-length human recombinant kinases were expressed using a baculovirus expression system as amino-terminal GST-fusion proteins; GST (N); purchased Carna Biosciences; host or cells: baculovirus expression system; details: 25 μM ATP, 1 μM DYRKtide-F; read-out: IC50, substrate phosphorylation
Excerpt: (§1) Detailed information on the assay conditions is available on the website of Carna Biosciences (http://www.carnabio.com/english/index.html; Kobe, Japan). In brief, full-length human recombinant kinases were expressed using a baculovirus expression system as amino-terminal GST-fusion proteins, and purified by glutathione-Sepharose chromatography. The GenBank accession numbers of DYRK1A, DYRK1B, DYRK2, and DYRK3 were NP_001387.2, NP_004705.1, NP_003574.1, and NP_003573.2. […] For each compound, a DMSO solution was diluted in assay buffer to yield a final concentration of 1% DMSO. After incubation for one hour at room temperature, substrate phosphorylation was analyzed by electrophoretic separation of the substrate and products using a Caliper LC3000 platform (Caliper Life Sciences, Mountain View, CA, USA). The phosphorylated product (P)/(P + substrate) ratio was calculated at each concentration of each small molecule and the percent inhibition was expressed relative to a control assay in the absence of the small molecule. […] The IC50 of each compound was calculated by interpolation on a log-concentration-response curve fitted with a four-parameter logistic equation.

DYRK1B = DYRK1B (Homo sapiens, UniProt Q9Y463); test: In vitro kinase assay, substrate DYRKtide-F; assay type: biochemical; design: full-length human recombinant kinases were expressed using a baculovirus expression system as amino-terminal GST-fusion proteins; GST (N); purchased Carna Biosciences; host or cells: baculovirus expression system; details: 50 μM ATP, 1 μM DYRKtide-F
Excerpt: as §1

CK1γ2 = molecular target: T14, CK1γ2 (Homo sapiens, UniProt P78368); test: Kinase panel, CaNDY 1 µM; assay type: biochemical; details: CaNDY 1 µM relative to DMSO
T14 construct: purchased Carna Biosciences

3xFLAG-DYRK1A = molecular target: T15, 3xFLAG-DYRK1A (Homo sapiens, UniProt Q13627); test: Western blot of 3xFLAG-DYRK1A level in transfected 293T cells; assay type: cell-based; details: CaNDY 2 μM, 8 h, compared with DMSO
T15 construct: F2A peptide linking to EGFP (2A skipping releases EGFP; a 2A remnant may stay on DYRK1A) (C); expressed in transfected cells; host or cells: 293T cells, transient
Method: To investigate whether DYRK1A is a client kinase of the CDC37/HSP90 system, we used a HSP90 inhibitor, ganetespib. 293T cells were transiently transfected with an expression vector of 3xFLAG-tagged DYRK1A (3xFLAG-DYRK1A). At 24 h after transfection, the cells were treated with ganetespib for the indicated time (0–8 h). Total cell lysates were collected and subjected to SDS-PAGE followed by Western blot analysis.
Figure 1 Ganetespib, a HSP90 inhibitor, decreases the DYRK1A protein level. 293T cells were transiently transfected with an expression vector for 3xFLAG-DYRK1A. At 24 h after transfection, the cells were treated with ganetespib (100 nM) and collected 0 and 8 h after treatment. Total cell lysates were subjected to SDS-PAGE followed by Western blot analysis using antibodies against FLAG and GAPDH. In the control group (DMSO), expression of 3xFLAG-DYRK1A increased at 8 h compared to 0 h, and ganetespib suppressed this increase of 3xFLAG-DYRK1A.
Western blot analysis was performed using the antibodies described above. In brief, total cell lysates were separated by SDS-PAGE (5–20% gels; ATTO, Tokyo, Japan) under reducing conditions and then transferred to a PVDF membrane (PALL, SP, Brazil). Antibody reactions were performed with Can Get Signal® Immunoreaction Enhancer Solution (Toyobo). Peroxidase activities on the membrane were visualized with ECL Western Blotting Detection Reagents (GE Healthcare) or ImmunoStar® LD (Wako Pure Chemical Industries, Osaka, Japan), and a ChemiDoc^TM MP Imaging System (Bio-Rad, Hercules, CA, USA).

T14 sequence (P78368 whole entry): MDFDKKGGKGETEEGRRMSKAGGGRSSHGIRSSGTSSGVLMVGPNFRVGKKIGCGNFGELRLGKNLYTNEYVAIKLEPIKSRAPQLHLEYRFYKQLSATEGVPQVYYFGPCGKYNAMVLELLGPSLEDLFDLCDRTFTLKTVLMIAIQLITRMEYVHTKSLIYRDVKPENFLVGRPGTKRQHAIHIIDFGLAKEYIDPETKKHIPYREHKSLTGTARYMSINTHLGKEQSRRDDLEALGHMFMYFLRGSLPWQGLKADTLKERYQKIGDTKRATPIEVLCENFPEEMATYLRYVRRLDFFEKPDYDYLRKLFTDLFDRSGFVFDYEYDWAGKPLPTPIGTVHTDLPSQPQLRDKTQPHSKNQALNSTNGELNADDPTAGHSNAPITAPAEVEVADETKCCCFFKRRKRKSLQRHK
T3 sequence (P14616 27-1297): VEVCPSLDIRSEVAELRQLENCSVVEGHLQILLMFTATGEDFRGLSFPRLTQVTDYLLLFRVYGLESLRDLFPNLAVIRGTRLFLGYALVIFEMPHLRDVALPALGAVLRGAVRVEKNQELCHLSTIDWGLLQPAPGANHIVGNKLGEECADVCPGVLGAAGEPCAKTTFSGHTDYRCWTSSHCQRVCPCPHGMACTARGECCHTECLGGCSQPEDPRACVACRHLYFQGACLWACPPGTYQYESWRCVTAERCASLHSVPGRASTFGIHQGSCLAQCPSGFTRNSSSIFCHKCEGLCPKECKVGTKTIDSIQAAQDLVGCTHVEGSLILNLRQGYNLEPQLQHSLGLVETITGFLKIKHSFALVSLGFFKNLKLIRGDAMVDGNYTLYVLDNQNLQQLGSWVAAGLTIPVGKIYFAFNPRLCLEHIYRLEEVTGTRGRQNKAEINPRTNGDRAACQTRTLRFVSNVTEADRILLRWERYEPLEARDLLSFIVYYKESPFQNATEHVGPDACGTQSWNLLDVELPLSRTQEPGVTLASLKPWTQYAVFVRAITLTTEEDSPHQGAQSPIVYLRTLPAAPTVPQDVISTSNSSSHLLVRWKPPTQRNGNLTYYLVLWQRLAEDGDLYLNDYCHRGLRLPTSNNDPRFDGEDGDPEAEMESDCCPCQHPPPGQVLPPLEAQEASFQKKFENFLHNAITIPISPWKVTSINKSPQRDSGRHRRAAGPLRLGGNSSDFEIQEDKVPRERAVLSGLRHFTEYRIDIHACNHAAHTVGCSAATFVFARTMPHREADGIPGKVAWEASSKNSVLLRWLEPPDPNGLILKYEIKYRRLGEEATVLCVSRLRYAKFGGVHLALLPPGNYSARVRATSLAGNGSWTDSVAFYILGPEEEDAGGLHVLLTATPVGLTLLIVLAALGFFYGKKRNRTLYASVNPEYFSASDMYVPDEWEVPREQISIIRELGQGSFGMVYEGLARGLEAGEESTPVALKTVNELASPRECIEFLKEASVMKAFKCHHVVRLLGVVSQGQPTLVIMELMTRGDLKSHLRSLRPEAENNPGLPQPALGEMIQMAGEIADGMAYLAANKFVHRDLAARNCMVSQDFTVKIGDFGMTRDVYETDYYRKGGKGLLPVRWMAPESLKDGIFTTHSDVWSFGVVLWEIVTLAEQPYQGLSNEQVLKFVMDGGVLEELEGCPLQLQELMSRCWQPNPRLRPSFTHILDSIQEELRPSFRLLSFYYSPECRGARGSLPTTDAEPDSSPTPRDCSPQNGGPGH
Sequence of DYRK1B (Q9Y463 whole entry, the tested form may be a part): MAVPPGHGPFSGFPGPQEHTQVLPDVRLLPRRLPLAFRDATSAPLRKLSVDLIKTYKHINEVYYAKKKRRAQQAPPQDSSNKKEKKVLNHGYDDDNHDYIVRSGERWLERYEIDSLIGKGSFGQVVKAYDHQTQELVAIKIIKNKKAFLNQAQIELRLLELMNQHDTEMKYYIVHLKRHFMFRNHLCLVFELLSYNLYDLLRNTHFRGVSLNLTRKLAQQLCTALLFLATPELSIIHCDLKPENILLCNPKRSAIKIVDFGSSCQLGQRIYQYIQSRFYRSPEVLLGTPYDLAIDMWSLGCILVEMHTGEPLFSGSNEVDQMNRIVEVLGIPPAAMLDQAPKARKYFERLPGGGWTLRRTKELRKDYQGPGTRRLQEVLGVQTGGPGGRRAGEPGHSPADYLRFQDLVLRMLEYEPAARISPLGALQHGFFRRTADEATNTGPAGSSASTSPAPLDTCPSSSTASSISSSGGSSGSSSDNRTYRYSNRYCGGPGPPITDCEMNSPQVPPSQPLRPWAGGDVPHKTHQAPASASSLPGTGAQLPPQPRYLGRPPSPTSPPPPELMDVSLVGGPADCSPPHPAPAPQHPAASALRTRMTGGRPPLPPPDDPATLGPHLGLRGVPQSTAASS
T9 sequence (P27361 whole entry): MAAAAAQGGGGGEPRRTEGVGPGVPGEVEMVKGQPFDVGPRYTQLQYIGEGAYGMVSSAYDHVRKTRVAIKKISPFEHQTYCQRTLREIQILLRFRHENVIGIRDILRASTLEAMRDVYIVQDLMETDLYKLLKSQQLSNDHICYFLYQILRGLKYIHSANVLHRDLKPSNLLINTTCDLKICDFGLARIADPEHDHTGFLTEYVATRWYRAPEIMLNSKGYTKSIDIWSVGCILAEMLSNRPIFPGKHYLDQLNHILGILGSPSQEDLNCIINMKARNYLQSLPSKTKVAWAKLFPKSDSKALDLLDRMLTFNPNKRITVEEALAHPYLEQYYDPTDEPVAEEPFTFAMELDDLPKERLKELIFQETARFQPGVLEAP
T5 sequence (Q9NWZ3 whole entry): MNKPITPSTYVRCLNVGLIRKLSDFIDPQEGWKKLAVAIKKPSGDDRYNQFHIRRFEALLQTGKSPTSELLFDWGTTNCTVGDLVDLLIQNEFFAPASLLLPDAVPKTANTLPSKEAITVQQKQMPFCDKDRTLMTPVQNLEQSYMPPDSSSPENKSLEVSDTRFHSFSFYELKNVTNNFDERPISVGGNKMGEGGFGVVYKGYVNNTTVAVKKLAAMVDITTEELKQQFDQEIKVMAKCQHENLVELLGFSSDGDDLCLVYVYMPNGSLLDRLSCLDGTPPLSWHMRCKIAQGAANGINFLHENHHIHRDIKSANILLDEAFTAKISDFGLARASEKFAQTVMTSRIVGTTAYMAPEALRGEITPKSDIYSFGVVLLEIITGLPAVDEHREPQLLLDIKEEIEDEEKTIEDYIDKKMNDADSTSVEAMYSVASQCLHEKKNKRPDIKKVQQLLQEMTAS
T1 sequence (Q16816 whole entry): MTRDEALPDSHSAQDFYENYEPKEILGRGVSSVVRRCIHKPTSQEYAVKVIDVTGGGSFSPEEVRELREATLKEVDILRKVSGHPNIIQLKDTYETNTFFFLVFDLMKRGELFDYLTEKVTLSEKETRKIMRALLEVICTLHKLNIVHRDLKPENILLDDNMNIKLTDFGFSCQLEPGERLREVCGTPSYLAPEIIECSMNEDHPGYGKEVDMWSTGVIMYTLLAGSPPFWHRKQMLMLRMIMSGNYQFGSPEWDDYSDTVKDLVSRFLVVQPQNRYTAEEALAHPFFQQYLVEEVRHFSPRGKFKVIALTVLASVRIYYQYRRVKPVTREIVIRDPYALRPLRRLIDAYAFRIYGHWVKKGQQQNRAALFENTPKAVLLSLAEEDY
T2 sequence (O95819 whole entry): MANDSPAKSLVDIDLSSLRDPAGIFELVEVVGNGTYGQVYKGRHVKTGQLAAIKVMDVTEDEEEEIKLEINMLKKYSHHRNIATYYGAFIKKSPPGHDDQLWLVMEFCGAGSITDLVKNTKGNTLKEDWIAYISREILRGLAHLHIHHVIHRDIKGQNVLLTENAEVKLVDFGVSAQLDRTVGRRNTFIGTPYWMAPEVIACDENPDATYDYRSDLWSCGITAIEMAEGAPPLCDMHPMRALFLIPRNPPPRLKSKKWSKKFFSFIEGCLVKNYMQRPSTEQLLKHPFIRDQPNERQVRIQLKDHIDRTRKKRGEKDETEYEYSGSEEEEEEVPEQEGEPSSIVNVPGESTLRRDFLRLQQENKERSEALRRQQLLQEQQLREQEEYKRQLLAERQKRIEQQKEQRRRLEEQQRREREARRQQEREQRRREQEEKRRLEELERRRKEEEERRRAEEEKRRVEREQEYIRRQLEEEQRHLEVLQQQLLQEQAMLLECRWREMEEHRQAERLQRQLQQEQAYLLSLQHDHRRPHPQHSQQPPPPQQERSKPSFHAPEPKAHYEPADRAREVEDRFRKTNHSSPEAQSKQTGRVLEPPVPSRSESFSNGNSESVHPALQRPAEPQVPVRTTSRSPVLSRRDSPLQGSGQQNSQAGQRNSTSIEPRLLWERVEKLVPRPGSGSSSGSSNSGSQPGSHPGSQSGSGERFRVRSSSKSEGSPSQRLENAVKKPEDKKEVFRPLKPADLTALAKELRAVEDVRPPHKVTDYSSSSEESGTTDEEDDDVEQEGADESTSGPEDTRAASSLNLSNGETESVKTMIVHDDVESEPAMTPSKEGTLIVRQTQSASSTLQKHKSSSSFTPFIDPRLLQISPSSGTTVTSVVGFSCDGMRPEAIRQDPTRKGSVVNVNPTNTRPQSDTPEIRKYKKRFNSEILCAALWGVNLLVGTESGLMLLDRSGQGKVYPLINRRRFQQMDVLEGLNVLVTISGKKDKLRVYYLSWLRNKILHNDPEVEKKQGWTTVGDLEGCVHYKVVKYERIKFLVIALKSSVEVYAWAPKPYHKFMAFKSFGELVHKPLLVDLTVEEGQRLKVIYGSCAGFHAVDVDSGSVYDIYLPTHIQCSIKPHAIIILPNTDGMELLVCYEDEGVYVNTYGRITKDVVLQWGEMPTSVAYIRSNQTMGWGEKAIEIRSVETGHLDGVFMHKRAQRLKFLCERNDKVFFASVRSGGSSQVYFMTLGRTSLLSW

## [H]/N=C1/NC(=O)C(=Cc2ccc3c(c2)CCO3)S1 [CaNDY, (Z)-5-[(2,3-dihydrobenzofuran-5-yl)methylene]-2-iminothiazolidin-4-one]
PHKG1
  remaining activity at 1 µM: 92.1%
HGK
  remaining activity at 1 µM: 42.1%
IRR
  remaining activity at 1 µM: 103%
JAK1
  %Activity: 96.9%
IRAK4
  %Activity: 100.8%
CK2α2/β
  remaining activity at 1 µM: 23.4%
TRKA
  remaining activity at 1 µM: 101%
Erk2
  remaining activity at 1 µM: 97.6%
Erk1
  remaining activity at 1 µM: 96.2%
p38γ
  remaining activity at 1 µM: 91.4%
PDGFRα(T674I)
  remaining activity at 1 µM: 94%
KDR
  remaining activity at 1 µM: 102%
RAF1_Cascade
  remaining activity at 1 µM: 82.3%
DYRK1A
  IC50: 0.0079 µM
DYRK1B
  IC50: 0.0241 µM
CK1γ2
  %Activity: 75.4%
3xFLAG-DYRK1A
  3xFLAG-DYRK1A level: decreased the 3xFLAG-DYRK1A level

— paper PMC4522657, “Identification of a DYRK1A Inhibitor that Induces Degradation of the Target Kinase using Co-chaperone CDC37 fused with Luciferase nanoKAZ” (Scientific Reports, 2015)
